Like-named read-outs stand apart in the source and are kept apart here.

The assay deals with Factor D (Homo sapiens (Human), UniProt P00746). As to the kind of experiment: biochemical. Format: biochemical.
Chain of Factor D (P00746 26-253): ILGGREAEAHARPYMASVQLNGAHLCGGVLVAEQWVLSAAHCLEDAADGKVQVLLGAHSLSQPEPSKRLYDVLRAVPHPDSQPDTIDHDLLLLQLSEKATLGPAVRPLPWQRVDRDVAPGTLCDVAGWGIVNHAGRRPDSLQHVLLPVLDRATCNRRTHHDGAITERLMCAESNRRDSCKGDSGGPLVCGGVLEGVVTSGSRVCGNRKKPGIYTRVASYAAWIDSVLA

On to “2S,3R)-3-(2-Methoxy-ethylamino)-pyrrolidine-1,2-dicarboxylic acid 1-[(1-carbamoyl-1H-indol-3-yl)-amide]2-(3-chloro-2-fluoro-benzylamide [Example 423]”, for which the IC50 (read-out: IC50) is 780 nM.
For “2S,3R)-3-Acetylamino-pyrrolidine-1,2-dicarboxylic acid 1-[(1-carbamoyl-1H-indol-3-yl)-amide]2-(3-chloro-2-fluoro-benzylamide [Example 422]”, the IC50 (read-out: IC50) was found to be 888 nM.
As to `NC(=O)n1cc(NC(=O)N2C[C@H](F)C[C@H]2C(=O)NC2CCOc3ccc(Cl)cc32)c2ccccc21` (mixture of isomers) [Example 326, (2S,4R)-4-Fluoro-pyrrolidine-1,2-dicarboxylic acid 1-[(1-carbamoyl-1H-indol-3-yl)-amide] 2-[(6-chloro-chroman-4-yl)-amide] (mixture of 2 diastereomers)], the 50% inhibitory concentration (IC50) (read-out: IC50) was found to be 7150 nM.
On to `NC(=O)n1cc(NC(=O)N2N=CCC2C(=O)NCc2cccc(Cl)c2F)c2ccccc21` (racemic) [Example 201, 4,5-Dihydro-pyrazole-1,5-dicarboxylic acid 1-[(1-carbamoyl-1H-indol-3-yl)-amide] 5-(3-chloro-2-fluoro-benzylamide)], for which the IC50 (read-out: IC50) is 20 nM.
`NC(=O)n1cc(NC(=O)N2C[C@@H](N)C[C@H]2C(=O)NC[C@H]2CCCC[C@@H]2O)c2ccccc21` (relative stereo) [Example 75, (2S,4S)-4-Amino-pyrrolidine-1,2-dicarboxylic acid 1-[(1-carbamoyl-1H-indol-3-yl)-amide] 2-[((1R*,2S*)-2-hydroxy-cyclohexylmethyl)-amide]] gave an IC50 of 12600 nM.
`NC(=O)n1cc(NC(=O)N2C[C@H]3C[C@H]3[C@H]2C(=O)NCc2cccc(Cl)c2)c2ccccc21` (relative stereo) [Example 167, (1R*,2S*,5S*)-3-Aza-bicyclo[3.1.0]hexane-2,3-dicarboxylic acid 3-[(1-carbamoyl-1H-indol-3-yl)-amide] 2-(3-chloro-benzylamide)]: the IC50 is 108 nM.
`NC(=O)n1cc(NC(=O)N2C[C@@H]3C[C@@H]3[C@H]2C(=O)NCc2cccc(Cl)c2F)c2cc(OCCO)ccc21` (relative stereo) [Example 382, 1S*,2S*,5R*)-3-Aza-bicyclo[3.1.0]hexane-2,3-dicarboxylic acid 3-{[1-carbamoyl-5-(2-hydroxy-ethoxy)-1H-indol-3-yl]-amide}2-(3-chloro-2-fluoro-benzylamide] displayed an IC50 of 184 nM.
On the same count and under the same terms, in the case of `NC(=O)n1cc(CC(=O)N2C[C@@H]3C[C@@H]3[C@H]2C(=O)NCc2cccc(Cl)c2F)c2cc(OCCO)ccc21` (relative stereo) [Example 465, 3-{2-[(1S*,2S*,5R*)-2-(3-Chloro-2-fluoro-benzylcarbamoyl)-3-aza-bicyclo[3.1.0]hex-3-yl]-2-oxo-ethyl}-5-(2-hydroxy-ethoxy)-indole-1-carboxylic acid amide] it was 1590 nM.
Turning to `NC(=O)n1cc(NC(=O)N2N=CC[C@H]2C(=O)NCc2cccc(Cl)c2F)c2ccccc21` (single isomer, unassigned) [Example 362, S^§)-4,5-Dihydro-pyrazole-1,5-dicarboxylic acid 1-[(1-carbamoyl-1H-indol-3-yl)-amide]5-(3-chloro-2-fluoro-benzylamide], the IC50 (read-out: IC50) worked out at 5 nM.
Consider `NC(=O)n1cc(NC(=O)N2N=CC[C@@H]2C(=O)NCc2cccc(Cl)c2F)c2ccccc21` (single isomer, unassigned) [Example 363, R^§)-4,5-Dihydro-pyrazole-1,5-dicarboxylic acid 1-[(1-carbamoyl-1H-indol-3-yl)-amide]5-(3-chloro-2-fluoro-benzylamide], for which the concentration for half-maximal inhibition (IC50) (read-out: IC50) was 9250 nM.
Still for that read-out and setting: with `C[C@@H](NC(=O)[C@@H]1[C@H](O)CCN1C(=O)Nc1cn(C(N)=O)c2ccccc12)c1cccc(Cl)c1F` (single isomer, unassigned) [Example 364] the figure was 900 nM; with `C[C@H](NC(=O)[C@@H]1[C@H](O)CCN1C(=O)Nc1cn(C(N)=O)c2ccccc12)c1cccc(Cl)c1F` (single isomer, unassigned) [Example 365], 45 nM; with `COC(=O)C(NC(=O)[C@@H]1C[C@H](N)CN1C(=O)Nc1cn(C(N)=O)c2ccccc12)C(C)C` (stereo in doubt) [Example 94, (R)-2-{[(2S,4S)-4-Amino-1-(1-carbamoyl-1H-indol-3-ylcarbamoyl)-pyrrolidine-2-carbonyl]-amino}-3-methyl-butyric acid methyl ester], 11000 nM.
On the same count and under the same terms, in the case of `NC(=O)n1cc(NC(=O)N2C[C@H](F)C[C@H]2C(=O)NCc2cccc(Cl)c2F)c2ccccc21` [Example 1] it was 7 nM.
Regarding `NC(=O)n1cc(NC(=O)N2C[C@H](F)C[C@H]2C(=O)NCc2ccccc2)c2ccccc21` [Example 2, (2S,4R)-4-Fluoro-pyrrolidine-1,2-dicarboxylic acid 2-benzylamide 1-[(1-carbamoyl-1H-indol-3-yl)-amide]], the IC50 (read-out: IC50) was 25 nM.
As to `NC(=O)n1cc(NC(=O)N2C[C@H](F)C[C@H]2C(=O)NCc2cccnc2)c2ccccc21` [Example 3, (2S,4R)-4-Fluoro-pyrrolidine-1,2-dicarboxylic acid 1-[(1-carbamoyl-1H-indol-3-yl)-amide] 2-[(pyridin-3-ylmethyl)-amide]], under “read-out: IC50”, the IC50 stood at 450 nM.
Regarding `COCCN(C)Cc1cc(Cl)c(F)c(CNC(=O)[C@@H]2C[C@@H](F)CN2C(=O)Nc2cn(C(N)=O)c3ccccc23)c1` [Example 4, (2S,4R)-4-Fluoro-pyrrolidine-1,2-dicarboxylic acid 1-[(1-carbamoyl-1H-indol-3-yl)-amide] 2-(3-chloro-2-fluoro-5-{[(2-methoxy-ethyl)-methyl-amino]-methyl}-benzylamide)], the IC50 (read-out: IC50) is 3980 nM.
The same measure, in the same setting: in the case of `NC(=O)n1cc(NC(=O)N2C[C@H](F)C[C@H]2C(=O)N[C@H](CO)c2cccc(Cl)c2F)c2ccccc21` [Example 5, (2S,4R)-4-Fluoro-pyrrolidine-1,2-dicarboxylic acid 1-[(1-carbamoyl-1H-indol-3-yl)-amide] 2-{[(S)-1-(3-chloro-2-fluoro-phenyl)-2-hydroxy-ethyl]-amide}] it was 30 nM; in that of `NC(=O)n1cc(NC(=O)N2C[C@H](F)C[C@H]2C(=O)NCc2ccncc2)c2ccccc21` [Example 6, (2S,4R)-4-Fluoro-pyrrolidine-1,2-dicarboxylic acid 1-[(1-carbamoyl-1H-indol-3-yl)-amide] 2-[(pyridin-4-ylmethyl)-amide]], 2100 nM.
Consider `NC(=O)n1cc(NC(=O)N2C[C@H](F)C[C@H]2C(=O)NCc2cccc(Cl)c2)c2ccccc21` [Example 8, (2S,4R)-4-Fluoro-pyrrolidine-1,2-dicarboxylic acid 1-[(1-carbamoyl-1H-indol-3-yl)-amide] 2-(3-chloro-benzylamide)], for which, for the setting “read-out: IC50”, the IC50 amounted to 9 nM.
In the case of `NC(=O)n1cc(NC(=O)N2C[C@H](F)C[C@H]2C(=O)NCc2cccc(O)c2)c2ccccc21` [Example 9, (2S,4R)-4-Fluoro-pyrrolidine-1,2-dicarboxylic acid 1-[(1-carbamoyl-1H-indol-3-yl)-amide] 2-(3-hydroxy-benzylamide)], the IC50 (read-out: IC50) worked out at 250 nM.
Turning to `CN1CCN(Cc2cc(Cl)c(F)c(CNC(=O)[C@@H]3C[C@@H](F)CN3C(=O)Nc3cn(C(N)=O)c4ccccc34)c2)CC1` [Example 10, (2S,4R)-4-Fluoro-pyrrolidine-1,2-dicarboxylic acid 1-[(1-carbamoyl-1H-indol-3-yl)-amide] 2-[3-chloro-2-fluoro-5-(4-methyl-piperazin-1-ylmethyl)-benzylamide]], the IC50 (read-out: IC50) stood at 604 nM.
With `NC(=O)n1cc(NC(=O)N2C[C@H](F)C[C@H]2C(=O)NCc2ccc(Cl)s2)c2ccccc21` [Example 11, (2S,4R)-4-Fluoro-pyrrolidine-1,2-dicarboxylic acid 1-[(1-carbamoyl-1H-indol-3-yl)-amide] 2-[(5-chloro-thiophen-2-ylmethyl)-amide]], where the note is “read-out: IC50”, the IC50 was 7 nM.
Consider `CCN(CC)Cc1cc(Cl)c(F)c(CNC(=O)[C@@H]2C[C@@H](F)CN2C(=O)Nc2cn(C(N)=O)c3ccccc23)c1` [Example 12, (2S,4R)-4-Fluoro-pyrrolidine-1,2-dicarboxylic acid 1-[(1-carbamoyl-1H-indol-3-yl)-amide] 2-(3-chloro-5-diethylamino-methyl-2-fluoro-benzyl-amide)], for which the IC50 (read-out: IC50) turned out to be 11100 nM.
For the molecule `NC(=O)n1cc(NC(=O)N2C[C@H](F)C[C@H]2C(=O)N[C@H](CO)c2ccccc2)c2ccccc21` [Example 13, (2S,4R)-4-Fluoro-pyrrolidine-1,2-dicarboxylic acid 1-[(1-carbamoyl-1H-indol-3-yl)-amide] 2-[((S)-2-hydroxy-1-phenyl-ethyl)-amide]], the IC50 (read-out: IC50) stood at 139 nM.
On to `CC[C@H](C)[C@H](NC(=O)[C@@H]1C[C@@H](F)CN1C(=O)Nc1cn(C(N)=O)c2ccccc12)C(=O)OC(C)(C)C` [Example 15, (2S,3S)-2-{[(2S,4R)-1-(1-Carbamoyl-1H-indol-3-ylcarbamoyl)-4-fluoro-pyrrolidine-2-carbonyl]-amino}-3-methyl-pentanoic acid tert-butyl ester], for which the IC50 (read-out: IC50) stood at 1100 nM.
For the molecule `CN(C)CCN(C)Cc1cc(Cl)c(F)c(CNC(=O)[C@@H]2C[C@@H](F)CN2C(=O)Nc2cn(C(N)=O)c3ccccc23)c1` [Example 17, (2S,4R)-4-Fluoro-pyrrolidine-1,2-dicarboxylic acid 1-[(1-carbamoyl-1H-indol-3-yl)-amide] 2-(3-chloro-5-{[(2-dimethylamino-ethyl)-methyl-amino]-methyl}-2-fluoro-benzylamide)], under “read-out: IC50”, the IC50 was determined as 4050 nM.
With `NC(=O)n1cc(NC(=O)N2C[C@H](F)C[C@H]2C(=O)NCc2cc(CN3CCOCC3)cc(Cl)c2F)c2ccccc21` [Example 18, (2S,4R)-4-Fluoro-pyrrolidine-1,2-dicarboxylic acid 1-[(1-carbamoyl-1H-indol-3-yl)-amide] 2-(3-chloro-2-fluoro-5-morpholin-4-ylmethyl-benzylamide)], under “read-out: IC50”, the IC50 was 815 nM.
As for `COC1CCN(Cc2cc(Cl)c(F)c(CNC(=O)[C@@H]3C[C@@H](F)CN3C(=O)Nc3cn(C(N)=O)c4ccccc34)c2)CC1` [Example 20, (2S,4R)-4-Fluoro-pyrrolidine-1,2-dicarboxylic acid 1-[(1-carbamoyl-1H-indol-3-yl)-amide] 2-(3-chloro-2-fluoro-5-(4-methoxy-piperidin-1-ylmethyl)-benzylamide]], the IC50 (read-out: IC50) was determined as 1130 nM.
